Columns and labels:
human PHD2 (PHD2181-417) = molecular target: T1, human PHD2 (PHD2181-417) (Homo sapiens, UniProt Q9GZT9); assay: PHD enzymatic assay ([14C]-succinic acid production); type: biochemical; conditions: PHD2181-417, HIF-1α peptide 10 μM, average of results; read-out: Enzyme pIC50 (converted)
T1 construct: Smt (SUMO) tag (cleaved yes); made in house; host or cells: E. coli BL21 (pBAD vector)
Description: Protein production was achieved by expression in BL21 cells grown in Terrific Broth containing 100 μg/ml ampicillin. Cell cultures were inoculated at 37° C. and grown to an OD600 of 0.8. Cultures were induced with 0.1% arabinose and grown overnight at 20° C. with continuous shaking at 225 rpm. Cells were then harvested by centrifugation and stored at −80° C. Cell pellets were suspended in Buffer A (50 mM Tris-HCl pH 7.2, 100 mM NaCl, 100 mM L-arginine, 1 mM TCEP, 0.05% (w/v) NP-40, 50 mM imidazole) followed by the addition of lysozyme and benzonase. Cells were lysed by sonication and the lysate was cleared by centrifugation (15,000 rpm, 90 min, 4° C.). The protein was purified by nickel affinity chromatography using a HisTrap Crude FF column (GE Healthcare). Samples were eluted in Buffer A with a 50-200 mM imidazole gradient. […] The flow-through was then dialyzed into 50 mM MES pH 6.0, 1 mM TCEP, 5 mM NaCl for ion exchange chromatography on a HiTrap SP Cation Exchange column (GE Healthcare). […] Fractions were pooled for further purification by size exclusion chromatography over a Superdex 75 Size Exclusion Column (GE Healthcare). Final protein was concentrated to 4 mg/ml and dialyzed in 10 mM PIPES pH 7.0, 100 mM NaCl, 0.5 mM TCEP.
(10 μM, California Peptide Research Inc., Napa, Calif.), and [5-^14C]-2-oxoglutaric acid (50 mCi/mmol, Moravek Chemicals, Brea, Calif.) in reaction buffer (40 mM Tris-HCl, pH 7.5, 0.4 mg/ml catalase, 0.5 mM DTT, 1 mM ascorbate) for 10 minutes. The reaction was stopped by addition of 50 μl of 70 mM H3PO4 and 50 μl of 500 mM NaH2PO4, pH3.2. Detection of [^14C]-succinic acid was achieved by separating from [5-^14C]-2-oxoglutaric acid by incubating the reaction mixture with 100 μl of 0.16 M DNP prepared in 30% perchloric acid. Next, 50 μl of unlabeled 20 mM 2-oxoglutaric acid/20 mM succinic acid, serving as carrier for the radioactivity, was added to the mixture, and was allowed to proceed for 30 minutes at room temperature. The reaction was then incubated with 50 μl of 1 M 2-oxoglutaric acid for 30 additional minutes at room temperature to precipitate the excess DNP. The reaction was then centrifuged at 2800×g for 10 minutes at room temperature to separate [^14C]-succinic acid in the supernatant from the precipitated [^14C]-dinitrophenylhydrazone. Fractions of the supernatant (400 μl) were counted using a beta counter (Beckman Coulter, Fullerton, Calif.).

Hep-3B cells = assay: Cellular assay: erythropoietin secretion in Hep-3B cells; type: cell-based, human; conditions: Homo sapiens, Hep3B, 100 μM compound, 24 hours, percent of EPO secretion relative to assay control compound 7-[(4-Chloro-phenyl)-(5-methyl-isoxazol-3-ylamino)-methyl]-quinolin-8-ol, read-out: Cellular % EPO Stimulation
Description: Hep-3B cells (ATCC, Manassas, Va.) were plated in 96-well plates at 20,000 cells per well in 100 μl of DMEM containing 10% fetal bovine serum, 1% non-essential amino acids, 50 IU/mL of penicillin and 50 μg/mL of streptomycin (all cell culture reagents from Invitrogen, Carlsbad, Calif.). Twenty-four hours after plating, compounds were added and incubated for an additional 24 hours. All compounds were tested under saturating conditions with final compound concentrations at 100 μM. Fifty microliters of the supernatant was then transferred to a human Hypoxia assay kit (Meso-Scale Discovery, Gaithersburg, Md.). Erythropoietin in the supernatant was detected according to the manufacturer's instructions as follows. EPO detection plates were blocked with 3% BSA in PBS overnight and 50 μl of the supernatant was incubated at room temperature in an orbital shaker for 2 h. Twenty-five microliters of 0.5 μg/ml anti-EPO detection antibody was added for 2 hours at room temperature in an orbital shaker. After 3 washes in PBS, 150 μl of 1× read buffer is added and the plate is then read on the MSD SECTOR instrument.

T1 sequence (Q9GZT9 181-417): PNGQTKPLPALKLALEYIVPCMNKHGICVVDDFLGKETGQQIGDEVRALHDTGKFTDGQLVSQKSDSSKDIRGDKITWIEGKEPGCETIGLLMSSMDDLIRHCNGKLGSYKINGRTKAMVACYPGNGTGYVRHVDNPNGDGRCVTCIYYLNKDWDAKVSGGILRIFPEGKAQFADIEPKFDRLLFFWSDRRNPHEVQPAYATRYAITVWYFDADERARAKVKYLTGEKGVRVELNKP

Cc1cccc(-c2ccc3nc(-n4cc(C(=O)O)cn4)[nH]c(=O)c3c2)c1 [Example 190, 1-(4-Oxo-6-m-tolyl-3,4-dihydro-quinazolin-2-yl)-1H-pyrazole-4-carboxylic acid]
IC50 (human PHD2 (PHD2181-417)): 25.1 nM
Emax at 100 µM (Hep-3B cells): 91%

COc1cccc(-c2ccc3nc(-n4cc(C(=O)O)cn4)[nH]c(=O)c3c2)c1 [Example 199, 1-[6-(3-Methoxy-phenyl)-4-oxo-3,4-dihydro-quinazolin-2-yl]-1H-pyrazole-4-carboxylic acid]
IC50 (human PHD2 (PHD2181-417)): 25.1 nM
Emax at 100 µM (Hep-3B cells): 119%

CS(=O)(=O)c1cccc(-c2ccc3nc(-n4cc(C(=O)O)cn4)[nH]c(=O)c3c2)c1 [Example 206, 1-[6-(3-Methanesulfonyl-phenyl)-4-oxo-3,4-dihydro-quinazolin-2-yl]-1H-pyrazole-4-carboxylic acid]
IC50 (human PHD2 (PHD2181-417)): 25.1 nM
Emax at 100 µM (Hep-3B cells): 13%

Cc1ccc(Oc2ccc3nc(-n4cc(C(=O)O)cn4)[nH]c(=O)c3c2)cc1 [Example 47, 1-(4-Oxo-6-p-tolyloxy-3,4-dihydro-quinazolin-2-yl)-1H-pyrazole-4-carboxylic acid]
IC50 (human PHD2 (PHD2181-417)): 31.6 nM
Emax at 100 µM (Hep-3B cells): 95%

CC(C)Oc1ccc2c(=O)[nH]c(-n3cc(C(=O)O)cn3)nc2c1 [Example 149, 1-(7-Isopropoxy-4-oxo-3,4-dihydro-quinazolin-2-yl)-1H-pyrazole-4-carboxylic acid]
IC50 (human PHD2 (PHD2181-417)): 398 nM
Emax at 100 µM (Hep-3B cells): 9%

O=C(O)c1cnn(-c2nc3cc(Oc4ccccc4)ccc3c(=O)[nH]2)c1 [Example 66, 1-(4-Oxo-7-phenoxy-3,4-dihydro-quinazolin-2-yl)-1H-pyrazole-4-carboxylic acid]
IC50 (human PHD2 (PHD2181-417)): 63.1 nM
Emax at 100 µM (Hep-3B cells): 41%

O=C(O)c1cnn(-c2nc3cc(F)c(Br)cc3c(=O)[nH]2)c1 [Example 127, 1-(6-Bromo-7-fluoro-4-oxo-3,4-dihydro-quinazolin-2-yl)-1H-pyrazole-4-carboxylic acid]
IC50 (human PHD2 (PHD2181-417)): 31.6 nM
Emax at 100 µM (Hep-3B cells): 9%

Cc1ccccc1CNc1ccc2nc(-n3cc(C(=O)O)cn3)[nH]c(=O)c2c1 [Example 173, 1-[6-(2-Methyl-benzylamino)-4-oxo-3,4-dihydro-quinazolin-2-yl]-1H-pyrazole-4-carboxylic acid]
IC50 (human PHD2 (PHD2181-417)): 20 nM
Emax at 100 µM (Hep-3B cells): 101%

O=C(O)c1cnn(-c2nc3cc(F)ccc3c(=O)[nH]2)c1 [Example 133, 1-(7-Fluoro-4-oxo-3,4-dihydro-quinazolin-2-yl)-1H-pyrazole-4-carboxylic acid]
IC50 (human PHD2 (PHD2181-417)): 39.8 nM
Emax at 100 µM (Hep-3B cells): 10%

CC(C)(C)c1ccc2nc(-n3cc(C(=O)O)cn3)[nH]c(=O)c2c1 [Example 19, 1-(6-tert-Butyl-4-oxo-3,4-dihydro-quinazolin-2-yl)-1H-pyrazole-4-carboxylic acid]
IC50 (human PHD2 (PHD2181-417)): 39.8 nM
Emax at 100 µM (Hep-3B cells): 45%

O=C(O)c1cnn(-c2nc3cc(Cl)c(N4CCc5ccccc5C4)cc3c(=O)[nH]2)c1 [Example 84, 1-[7-Chloro-6-(3,4-dihydro-1H-isoquinolin-2-yl)-4-oxo-3,4-dihydro-quinazolin-2-yl]-1H-pyrazole-4-carboxylic acid]
IC50 (human PHD2 (PHD2181-417)): 20 nM
Emax at 100 µM (Hep-3B cells): 101%

O=C(O)c1cnn(-c2nc3cc(Cl)c(Cl)cc3c(=O)[nH]2)c1 [Example 3, 1-(6,7-Dichloro-4-oxo-3,4-dihydro-quinazolin-2-yl)-1H-pyrazole-4-carboxylic acid]
IC50 (human PHD2 (PHD2181-417)): 25.1 nM
Emax at 100 µM (Hep-3B cells): 37%

N#Cc1cccc(CNc2ccc3nc(-n4cc(C(=O)O)cn4)[nH]c(=O)c3c2)c1 [Example 178, 1-[6-(3-Cyano-benzylamino)-4-oxo-3,4-dihydro-quinazolin-2-yl]-1H-pyrazole-4-carboxylic acid]
IC50 (human PHD2 (PHD2181-417)): 20 nM
Emax at 100 µM (Hep-3B cells): 12%

O=C(O)c1cnn(-c2nc3cc4c(cc3c(=O)[nH]2)CCCC4)c1 [Example 143, 1-(4-Oxo-3,4,6,7,8,9-hexahydro-benzo[g]quinazolin-2-yl)-1H-pyrazole-4-carboxylic acid]
IC50 (human PHD2 (PHD2181-417)): 31.6 nM
Emax at 100 µM (Hep-3B cells): 75%

Source: patent US8937078B2, “Quinazolinones as prolyl hydroxylase inhibitors” (Janssen Pharmaceutica NV, priority 2009, dated 2015)
